“Also recorded” adds a separate entry of the source.
Tests used:
[1] = system: malignant lymphocytes from two patients with chronic lymphocytic leukemia [CLL]; experiment: Effect of the p53 inhibitory compounds on B-CLL viability (PI exclusion by FACS, MTT), 3 days culture; assay type: cell-based; conditions: FIG. 1
Excerpt: The malignant lymphocytes from two patients with chronic lymphocytic leukemia [CLL] were isolated by ficoll-hypaque sedimentation and suspended at a density of 1 million cells per milliliter in RPMI 1640 medium supplemented with 10% fetal bovine serum. Two hundred microliter aliquots of cells were dispersed in the wells of culture plates containing the indicated final concentrations of either PFT-α (“PFT-open”) or IBT (PFT-closed). After 3 days culture, viable cells were enumerated by fluorescence-activated cell sorting [FACS] after staining with propidium iodide [PI]. Viable cells excluded the dye [open circles]. In addition, cell metabolism was assessed by the ability of the cells to […] the tetrazolium dye MTT [closed squares].

[2] = system: Chronic lymphocytic leukemia [CLL] cells; experiment: Protection against spontaneous apoptosis and fludarabine-induced apoptosis (PI negative / DiOC6 high cells by FACS); assay type: cell-based; conditions: one micromolar, 3 days culture, FIG. 2
Method: Chronic lymphocytic leukemia [CLL] cells were cultured for 3 days as described in Example 2. Some of the cultures were supplemented with one micromolar of PFT-open or PFT-closed, as indicated. In the experiment shown in the bottom panel of FIG. 2, some of the cultures also contained the cytotoxic adenine nucleoside analog fludarabine [abbreviated F-AraA]. Fludarabine is the first line treatment for CLL, and the toxicity of the drug is dependent upon the p53 pathway. To assess healthy, viable cells, staining was done with both PI, as indicated in Example 2, and with the mitochondrial dye DiOC6. Cells that were both PI negative and DIOC6 high were enumerated by FACS.

[3] = system: BEAS-2B human airway epithelial cells; experiment: Viability of treated cells at end of incubation in the 12/15-lipoxygenase promoter/luciferase STAT-6 reporter assay; assay type: cell-based; conditions: 10 μM for 1 hour, then IL-4 10 ng/ml, 16 hours
Method: The BEAS-2B human airway epithelial cells were transiently transfected with the human 12/15-lipoxygenase promoter/luciferase reporter gene. Cells were then incubated with the IBT analogs (FIG. 5) at 10 μM for 1 hour, followed by IL-4 (10 ng/ml). After 16 hours, luciferase was measured using a chemiluminometer. The STAT-6 induction was normalized using the B-gal results as “background.” The viability of the treated cells was visually verified at the end of the incubation, and found to be >95%. Results shown in FIG. 3 are the mean of duplicate measurements.
Human airway epithelial cells, BEAS-2B, were transiently transfected with the human 12/15-lipoxygenase promoter/luciferase reporter plasmid with and without a STAT6 expressing plasmid. The cells were incubated with 10 μM of STAT-6 (Control Sample 1); 10 μM STAT-6 (Sample 2); a mixture of STAT-6 and compound 8 (Sample 3); and compound 8 alone (Sample 4); for 1 hour. This was followed treatment with 10 ng/mL of IL-4 (except control). After 16 hours, luciferase was measured using a chemiluminometer. The STAT-6 induction was normalized using the β-gal results as “background”. The viability of the treated cells was visually verified at the end of the incubation, and found to be>95%. The results are illustrated in FIG. 7.

[4] = system: Human Hodgkin's lymphoma cells L1236; experiment: Effect of IBT and interferon on Hodgkin's lymphoma cells (CellTiter 96 MTS viability); assay type: cell-based; conditions: 3, 5 or 7 days; IBT at doses up to 10 μM; FIG. 12
Method: Human Hodgkin's lymphoma cells L1236 were incubated for 3, 5 or 7 days in complete RPMI1640 and 10% FBS. The cells were plated at 3×10^5 cells/mL.
The effect was more pronounced after 7 days of incubation.
The results are illustrated in FIG. 12. The y-axis represent the normalized viability when compared to control cells incubated with 0.1% DMSO with no interferon or IBT added, adjusted at 100%. The cell viability was determined using CellTiter 96 Aqueous One Solution Cell Proliferation Assay (Promega). (CellTiter 96 uses a novel tetrazolium compound (MTS) and an electron coupling reagent, phenazine ethosulfate.)

[5] = Cyclization of PFT-α to IBT in DMSO/water dilutions, reversed phase HPLC over time; assay type: physicochemical; conditions: for % cyclized to IBT: DMSO stock diluted with water, 25° C., reversed phase HPLC
Method: The preparation of PFT-α was accomplished as shown in Scheme 1 by reacting 4-methyl-2-bromoacetophenone with 2-amino-4,5,6,7-tetrahydrobenzothiazole. Upon recrystallization of the PFT-α from isopropyl alcohol, it was noticed that PFT-α readily ring-closed completely to the imidazo[2, 1-b]benzothiazole (IBT). Therefore, a subsequent investigation was undertaken to study the propensity of PFT-α to ring-close in protic solvents. […] Thus, PFT-α was dissolved in DMSO and water dilutions were made from this stock.

Cc1ccc(-c2cn3c4c(sc3n2)CCCC4)cc1 [IBT]
CLL survival / toxicity (viable cells by PI exclusion and MTT) [1]: non-toxic at concentrations up to 100 micromolar | Effect on untreated CLL cells (spontaneous apoptosis) [2]: nearly equivalent effects | Protective effect on CLL cells treated with F-AraA (fludarabine) ([2]; with fludarabine, compared with PFT-α): less protective effects | Viability of the treated cells, visually verified at the end of the incubation [3]: > 95% | Anti-proliferative / growth-inhibitory effect on L1236 cells (normalized viability) [4]: only a small anti-proliferative effect

Cc1ccc(C(=O)Cn2c3c(sc2=N)CCCC3)cc1 [PFT-α]
% cyclized to IBT ([5]; 0 h): 5% | % cyclized to IBT ([5]; 12 h): 47% | % cyclized to IBT ([5]; 24 h): 69% | % cyclized to IBT ([5]; 48 h): 92% | Stability / ring closure in protic solvents and aqueous solution (in words) ([5]; protic solvents, room temperature, aqueous solution): unstable in aqueous solution under in vivo conditions; also recorded: begins cyclizing at room temperature immediately upon dissolution in protic solvents | CLL survival / toxicity (viable cells by PI exclusion and MTT) [1]: dose-dependently reduced CLL survival | Effect on untreated CLL cells (spontaneous apoptosis) [2]: nearly equivalent effects
